Measurements published in US10329295B2, “Pyrrolotriazine inhibitors of IRAK4 activity” (MERCK SHARP & DOHME CORP., priority 2015, dated 2019).
Structures can show the parent of a compound that is named as a salt.

These molecules were tested against GST tagged IRAK4 (Homo sapiens (Human), UniProt Q9NWZ3) (assay: IRAK4 Kinase Assay (IMAP fluorescence polarization)). Conditions: 0.5 nM GST tagged IRAK4, 100 μM ATP, 30 minutes at 25° C.
Type: biochemical
Protocol: The kinase activity of IRAK4 is determined by its ability to catalyze the phosphorylation of a fluorescent polypeptide substrate. The extent of phosphorylation is measured using the IMAP technology (Molecular Devices) where the phosphorylated fluorescent substrate binds to the large M(III)-based nanoparticles which reduces the rotational speed of the substrate and thus increases its fluorescent polarization (FP).
20 μL reaction mixture contains 10 mM TriHCl, pH 7.2, 0.5 nM GST tagged IRAK4 (SignalChem), 100 nM fluorescent peptide substrate (RP7030, Molecular Devices), 100 μM ATP, 1 mM DDT, 1 mM MgCl2, and 0.01% Tween 20. The reaction is initiated by the addition of ATP. After incubation for 30 minutes at 25° C., 60 μL of Progressive IMAP Reagent (Molecular Devices) is added to stop the reaction. Change in RP7030's FP is determined by a FP reader (Analyst HT, LJL BioSystems).

Sequence of GST tagged IRAK4 (Q9NWZ3 whole entry): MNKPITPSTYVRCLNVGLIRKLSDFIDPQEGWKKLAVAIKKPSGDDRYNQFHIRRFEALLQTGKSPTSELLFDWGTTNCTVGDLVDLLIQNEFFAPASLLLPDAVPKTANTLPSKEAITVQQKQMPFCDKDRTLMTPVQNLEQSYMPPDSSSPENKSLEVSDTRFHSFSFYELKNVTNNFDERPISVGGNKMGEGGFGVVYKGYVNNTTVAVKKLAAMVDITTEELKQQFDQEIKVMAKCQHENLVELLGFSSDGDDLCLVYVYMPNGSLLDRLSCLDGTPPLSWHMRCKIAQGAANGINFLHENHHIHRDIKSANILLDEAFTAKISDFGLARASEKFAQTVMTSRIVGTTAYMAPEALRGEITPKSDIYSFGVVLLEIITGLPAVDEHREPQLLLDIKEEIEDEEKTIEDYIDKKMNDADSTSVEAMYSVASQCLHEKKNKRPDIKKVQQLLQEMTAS

| IC50 | SMILES |
| --- | --- |
| 174 nM | Cn1cc(NC(=O)c2ccc3cnc(N4C[C@H]5CNC[C@@H]4C5)nn23)c(C#N)n1 (single isomer, unassigned) [Example 134, N-(3-cyano-1-methyl-1H-pyrazol-4-yl)-2-[(1R,5S)- or (1S,5R)-3,6-diazabicyclo[3.2.1]oct-6-yl]pyrrolo[2,1-f][1,2,4]triazine-7-carboxamide] |
| 867 nM | Cn1cc(NC(=O)c2ccc3cnc(N4C[C@@H]5CNC[C@H]4C5)nn23)c(C#N)n1 (single isomer, unassigned) [Example 135, N-(3-cyano-1-methyl-1H-pyrazol-4-yl)-2-[(1R,5S)- or (1S,5R)-3,6-diazabicyclo[3.2.1]oct-6-yl]pyrrolo[2,1-f][1,2,4]triazine-7-carboxamide] |
| 3 nM | Cn1cc(NC(=O)c2ccc3cnc(N[C@@H]4CCC(F)(F)C[C@@H]4N)nn23)c(C(F)F)n1 (single isomer, unassigned) [Example 139, 2-{[(1S,2R)- or (1R,2S)-2-amino-4,4-difluorocyclohexyl]amino}-N-[3-(difluoromethyl)-1-methyl-1H-pyrazol-4-yl]pyrrolo[2,1-f][1,2,4]triazine-7-carboxamide] |
| 3 nM | Cn1cc(NC(=O)c2ccc3cnc(N[C@@H]4CC(F)(F)CC[C@@H]4N)nn23)c(C(F)F)n1 (single isomer, unassigned) [Example 140, 2-{[(1S,2R)- or (1R,2S)-2-amino-5,5-difluorocyclohexyl]amino}-N-[3-(difluoromethyl)-1-methyl-1H-pyrazol-4-yl]pyrrolo[2,1-f][1,2,4]triazine-7-carboxamide] |
| 35 nM | Cn1cc(NC(=O)c2ccc3cnc(N4C[C@@H]5CC[C@H]4CN5)nn23)c(C(F)(F)F)n1 (single isomer, unassigned) [Example 170, 2-[(1S,4S)- or (1R,4R)-2,5-diazabicyclo[2.2.2]oct-2-yl]-N-[1-methyl-3-(trifluoromethyl)-1H-pyrazol-4-yl]pyrrolo[2,1-f][1,2,4]triazine-7-carboxamide] |
| 64 nM | Cn1cc(NC(=O)c2ccc3cnc(N4C[C@H]5CC[C@@H]4CN5)nn23)c(C(F)(F)F)n1 (single isomer, unassigned) [Example 171, 2-[(1S,4S)- or (1R,4R)-2,5-diazabicyclo[2.2.2]oct-2-yl]-N-[1-methyl-3-(trifluoromethyl)-1H-pyrazol-4-yl]pyrrolo[2,1-f][1,2,4]triazine-7-carboxamide] |
| 0.5 nM | Cn1cc(NC(=O)c2ccc3cnc(N[C@@H]4CCCC[C@@H]4N)nn23)c(C(F)F)n1 [Example 1, 2-{[(1R,2S)-2-Aminocyclohexyl]amino}-N-[3-(difluoromethyl)-1-methyl-1H-pyrazol-4-yl]pyrrolo[2,1-f][1,2,4]triazine-7-carboxamide] |
| 2 nM | Cn1cc(NC(=O)c2ccc3cnc(N[C@@H]4CCCC[C@@H]4N)nn23)c(C(F)(F)F)n1 [Example 2, 2-{[(1R,2S)-2-aminocyclohexyl]amino}-N-[1-methyl-3-(trifluoromethyl)-1H-pyrazol-4-yl]pyrrolo[2,1-f][1,2,4]triazine-7-carboxamide trifluoroacetate] |
| 322 nM | Cn1cc(NC(=O)c2ccc3cnc(N[C@@H]4CCCC[C@@H]4O)nn23)c(C(F)(F)F)n1 [Example 3, 2-{[(1R,2S)-2-hydroxycyclohexyl]amino}-N-[1-methyl-3-(trifluoromethyl)-1H-pyrazol-4-yl]pyrrolo[2,1-f][1,2,4]triazine-7-carboxamide trifluoroacetate] |
| 73 nM | Cn1cc(NC(=O)c2ccc3cnc(N4CCNCC4)nn23)c(C(F)(F)F)n1 [Example 4, N-[1-methyl-3-(trifluoromethyl)-1H-pyrazol-4-yl]-2-piperazin-1-ylpyrrolo[2,1-f][1,2,4]triazine-7-carboxamide trifluoroacetate] |
| 2 nM | Cn1cc(NC(=O)c2ccc3cnc(N[C@@H]4CCCNC4)nn23)c(C(F)(F)F)n1 [Example 5, N-[1-methyl-3-(trifluoromethyl)-1H-pyrazol-4-yl]-2-[(3R)-piperidin-3-ylamino]pyrrolo[2,1-f][1,2,4]triazine-7-carboxamide trifluoroacetate] |
| 94 nM | Cn1cc(NC(=O)c2ccc3cnc(N4CCCNCC4)nn23)c(C(F)(F)F)n1 [Example 6, 2-(1,4-diazepan-1-yl)-N-[1-methyl-3-(trifluoromethyl)-1H-pyrazol-4-yl]pyrrolo[2,1-f][1,2,4]triazine-7-carboxamide trifluoroacetate] |
| 0.9 nM | Cn1cc(NC(=O)c2ccc3cnc(N4CCC[C@@H](N)C4)nn23)c(C(F)(F)F)n1 [Example 7, 2-[(3R)-3-aminopiperidin-1-yl]-N-[1-methyl-3-(trifluoromethyl)-1H-pyrazol-4-yl]pyrrolo[2,1-f][1,2,4]triazine-7-carboxamide trifluoroacetate] |
| 276 nM | Cn1cc(NC(=O)c2ccc3cnc(N[C@@H]4CCCC(F)(F)[C@@H]4N)nn23)c(C(F)(F)F)n1 [Example 8, 2-{[(1R,2R)-2-amino-3,3-difluorocyclohexyl]amino}-N-[1-methyl-3-(trifluoromethyl)-1H-pyrazol-4-yl]pyrrolo[2,1-f][1,2,4]triazine-7-carboxamide trifluoroacetate] |
| 7 nM | Cn1cc(NC(=O)c2ccc3cnc(N4CCNCC5(CC5)C4)nn23)c(C(F)(F)F)n1 [Example 9, 2-(5,8-diazaspiro[2.6]non-5-yl)-N-[1-methyl-3-(trifluoromethyl)-1H-pyrazol-4-yl]pyrrolo[2,1-f][1,2,4]triazine-7-carboxamide trifluoroacetate] |
| 4 nM | Cn1cc(NC(=O)c2ccc3cnc(NC4CCCCNC4)nn23)c(C(F)(F)F)n1 (stereo not drawn) [Example 10, 2-(azepan-3-ylamino)-N-[1-methyl-3-(trifluoromethyl)-1H-pyrazol-4-yl]pyrrolo[2,1-f][1,2,4]triazine-7-carboxamide trifluoroacetate] |
| 3 nM | Cn1cc(NC(=O)c2ccc3cnc(N4CCNCC4)nn23)c(C(F)F)n1 [Example 11, N-[3-(difluoromethyl)-1-methyl-1H-pyrazol-4-yl]-2-piperazin-1-ylpyrrolo[2,1-f][1,2,4]triazine-7-carboxamide trifluoroacetate] |
| 365 nM | N#Cc1cscc1NC(=O)c1ccc2cnc(N3CCCNCC3)nn12 [Example 12, N-(4-cyanothiophen-3-yl)-2-(1,4-diazepan-1-yl)pyrrolo[2,1-f][1,2,4]triazine-7-carboxamide trifluoroacetate] |
| 4 nM | N#Cc1cscc1NC(=O)c1ccc2cnc(N[C@@H]3CCCC[C@@H]3N)nn12 [Example 13, 2-{[(1R,2S)-2-aminocyclohexyl]amino}-N-(4-cyanothiophen-3-yl)pyrrolo[2,1-f][1,2,4]triazine-7-carboxamide trifluoroacetate] |
| 6 nM | N[C@H]1CCCC[C@H]1Nc1ncc2ccc(C(=O)Nc3cscc3Br)n2n1 [Example 14, 2-{[(1R,2S)-2-aminocyclohexyl]amino}-N-(4-bromothiophen-3-yl)pyrrolo[2,1-f][1,2,4]triazine-7-carboxamide trifluoroacetate] |
| 6 nM | Cn1cc(NC(=O)c2ccc3cnc(N4CCCNCC4)nn23)c(C(F)F)n1 [Example 15, 2-(1,4-diazepan-1-yl)-N-[3-(difluoromethyl)-1-methyl-1H-pyrazol-4-yl]pyrrolo[2,1-f][1,2,4]triazine-7-carboxamide trifluoroacetate] |
